Results on two compounds are retold here after patent publication US20070287689A1, “Therapeutic And/Or Preventive Agents For Chronic Skin Diseases” (KYOWA HAKKO KOGYO CO., LTD., priority 2004, published 2007).

Test [1] deals with chronic dermatitis models. The note with it: Non-patent Document 2; cited from earlier work.
Test [2] has as its system delayed-type allergic reaction in the skin. As to conditions: animal model; Non-patent Document 1; cited from earlier work.
Test [3] concerns oxazolone-induced ear swelling. In words: Inhibitory effects on oxazolone-induced ear swelling in mice (Test Example 2). The format is in vivo. As to conditions: dose 1.2 μg/site, 0.03 mg/mL in acetone applied to inner and outer side of the ear 3 hours before and 2 hours after inducing the reaction, ear thickness 24 hours after induction, BALB/c mice. The method, then:
Six-week-old BALB/c mice (male, Charles River Japan, Inc.) were purchased. […] The mice were placed in plastic cages (6 mice per cage) in a breeding room which was kept at a room temperature (19 to 25° C.) and a humidity of 30 to 70% and was illuminated for 12 hours a day (from 7:00 a.m. to 7:00 p.m.). The mice were allowed to freely intake commercially available pellets and water.
As an antigen solution, Oxazolone (Sigma-Aldrich) was dissolved in acetone (Kanto Kagaku) to prepare 0.5 w/v % of oxazolone-acetone solution. BALB/c mice were each applied with 100 μL of the antigen solution to the shaved abdomen for sensitization. Mice were shaved on abdomen on the previous day of the sensitization. […] Ear thickness was measured with a dial thickness gauge (Ozaki Seisakusho) just before and 24 hours after inducing the reaction, and the difference in the thickness was used as an indication of ear swelling. The inhibition ratio (%) against ear swelling was calculated using the following: Inhibition ratio (%)=[{(value in positive control group)−(value in test compound administration group)}/{(value in positive control group)−(value in negative control group)}]×100 Test compound administration group: Compound (I) administration group, prednisolone administration group or combined administration group

Marks after values point to notes of the source that are not given here.

Consider `COc1ccc([C@]2(C#N)CC[C@@H](C(=O)O)CC2)cc1OC1CCCC1` [SB207499], for which the “Therapeutic effects on chronic dermatitis models” value in test [1] is recorded as “exhibit therapeutic effects”. Moreover, in test [2], the “Effect on delayed-type allergic reaction in the skin” value was “inhibit a delayed-type allergic reaction in the skin”.

With `C[C@]12C=CC(=O)C=C1CC[C@@H]1[C@@H]2[C@@H](O)C[C@@]2(C)[C@H]1CC[C@]2(O)C(=O)CO` [prednisolone], the “Inhibition Ratio (ear swelling)” value was determined as 18% in test [3] and 18%*** in test [3] (listed as Predonisolone).
